{
  "source": "patent US20240238290A1",
  "about": "“USE OF COMPLEMENT FACTOR D INHIBITOR FOR TREATMENT OF GENERALIZED MYASTHENIA GRAVIS” (Alexion Pharmaceuticals, Inc., priority 2021, published 2024)",
  "key": {"plasma Bb": {"tested_on": "plasma Bb", "experiment": "Biomarkers of AP activity in vivo (plasma Bb levels)"}, "[1]": {"tested_on": "complement alternative pathway (AP) activity", "experiment": "AP inhibition in the AP Wieslab assay (PD), Phase 1 healthy volunteer studies", "format": "in vivo, human", "description": "(§1) In addition, both dosage regimens provided complete (>90%) and sustained inhibition of AP activity throughout the 12-hour dosing interval. Therefore, 120 mg BID is selected as the minimum therapeutic dosage."}, "[2]": {"experiment": "Safety and safety margin of multiple dose regimens versus NOAEL exposures from nonclinical chronic toxicology studies", "format": "in vivo, human", "conditions": "multiple dose study", "description": "as §1"}, "FD (complement factor D)": {"molecular_target": "FD (complement factor D) (Homo sapiens, UniProt P00746)", "sequence (P00746 26-253)": "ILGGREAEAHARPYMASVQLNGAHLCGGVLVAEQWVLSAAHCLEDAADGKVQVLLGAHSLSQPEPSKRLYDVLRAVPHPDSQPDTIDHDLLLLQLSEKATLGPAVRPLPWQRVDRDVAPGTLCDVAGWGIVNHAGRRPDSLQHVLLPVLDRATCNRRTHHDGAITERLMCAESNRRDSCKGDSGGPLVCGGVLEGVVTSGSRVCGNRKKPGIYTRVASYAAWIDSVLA", "experiment": "Inhibition of factor D"}, "[3]": {"experiment": "Phase 1 single ascending and multiple ascending dose studies, PK", "format": "in vivo, human", "conditions": "for PK exposures versus dose: healthy volunteers"}},
  "data": [
    {"smiles": "CC(=O)c1nn(CC(=O)N2[C@H](C(=O)Nc3nc(Br)ccc3C)C[C@@]3(C)C[C@@H]23)c2ccc(-c3cnc(C)nc3)cc12", "note": "[Compound 1, vemircopan]", "values": [
      {"measurement": "plasma Bb levels following administration", "setting": "plasma Bb", "value": "significant dose-dependent reductions"},
      {"measurement": "inhibition at 120 mg", "setting": "[1]; Homo sapiens, 120 mg BID, sustained throughout the 12-hour dosing interval", "value": "> 90", "unit": "%"},
      {"measurement": "inhibition at 200 mg", "setting": "[1]; Homo sapiens, 200 mg BID, sustained throughout the 12-hour dosing interval", "value": "> 90", "unit": "%"},
      {"measurement": "PD activity as determined by AP inhibition in the AP Wieslab assay", "setting": "[1]; healthy volunteers, Phase 1", "value": "increased with increasing exposure"},
      {"measurement": "inhibition of complement AP activity in vivo", "setting": "[1]; in vivo", "value": "dose dependent inhibition"},
      {"measurement": "safety and effectiveness of dosage regimen", "setting": "[2]; 120 mg BID", "value": "safe and effective"},
      {"measurement": "safety margin in AUC0-24 over exposures at NOAEL", "setting": "[2]; 120 mg BID", "value": "≥ 10", "unit": "fold"},
      {"measurement": "safety margin in Cmax over exposures at NOAEL", "setting": "[2]; 120 mg BID", "value": "≥ 10", "unit": "fold"},
      {"measurement": "safety and effectiveness of dosage regimen", "setting": "[2]; 200 mg BID", "value": "safe and effective"},
      {"measurement": "safety margin in AUC0-24 over exposures at NOAEL", "setting": "[2]; 200 mg BID", "value": "≥ 10", "unit": "fold"},
      {"measurement": "safety margin in Cmax over exposures at NOAEL", "setting": "[2]; 200 mg BID", "value": "≥ 10", "unit": "fold"},
      {"measurement": "inhibition of FD", "setting": "FD (complement factor D)", "value": "potent inhibitor"},
      {"measurement": "variability in the PK and PD data and PK/PD relationship", "setting": "[3]; Phase 1 healthy volunteers", "value": "large variabilities"},
      {"measurement": "PK exposures versus dose", "setting": "[3]; following single doses", "value": "increased dose proportionally"},
      {"measurement": "PK exposures versus dose", "setting": "[3]; multiple doses at steady state, 40 mg BID to 200 mg BID", "value": "greater than dose proportional manner"}
    ]}
  ]
}
